Values of other authors in patent US20250302824A1, “IN SITU READY-TO-USE INJECTION FORMULATIONS OF POSACONAZOLE FREE OF CYCLODEXTRIN AND ITS DERIVATIVES” (Hefei Cosource Pharmaceuticals Co., Ltd, priority 2024, published 2025).
Values after ≈ are worked out from the molar mass of the structure shown. Like-named read-outs stand apart in the source and are kept apart here.

- solubility (at pH 1): 800 µg/mL (≈ 1140 µM)
- solubility (in neutral and alkaline solutions): less than 1 μg/ml
Compound: CC[C@@H]([C@H](C)O)n1ncn(-c2ccc(N3CCN(c4ccc(OC[C@@H]5CO[C@@](Cn6cncn6)(c6ccc(F)cc6F)C5)cc4)CC3)cc2)c1=O [Posaconazole]
